{"source": "paper PMC4061985", "about": "(Journal of immunology (Baltimore, Md. : 1950), 2009)", "note": "Residues, ends and D or L forms follow the SMILES beside them.", "data": [{"target": "HLA-DR0901 protein (Homo sapiens, UniProt P01903+P01911, A100R/A103E/D57H/D86V/F55Y/F60I/F76Y/I96F/K127E/L162R/M171V/P40D/Q125H/Q99R/R33Q/R42F/S133A/S66N/T210M/V115G/W38K/Y107V/Y59G/Y89S)", "test": "Peptide binding competition assay, DR0901", "units": {"Kd": "nM"}, "values": [{"smiles": "CC[C@H](C)[C@H](NC(=O)[C@H](CCCCN)NC(=O)[C@H](CC(=O)O)NC(=O)[C@H](CC(C)C)NC(=O)[C@H](C)NC(=O)[C@H](Cc1ccc(O)cc1)NC(=O)[C@H](CC(N)=O)NC(=O)[C@H](Cc1ccccc1)NC(=O)[C@H](CC(N)=O)NC(=O)[C@@H](N)CC(C)C)C(=O)N[C@H](C(=O)N[C@H](C(=O)N[C@@H](CC(=O)O)C(=O)O)C(C)C)[C@@H](C)CC", "note": "[LNFNYALDKIIVD] (H-LNFNYALDKIIVD-OH)", "Kd": "55 ± 10"}, {"smiles": "CC[C@H](C)[C@H](NC(=O)[C@H](CCCCN)NC(=O)[C@H](CC(=O)O)NC(=O)[C@H](CC(C)C)NC(=O)[C@H](CC(=O)O)NC(=O)[C@H](Cc1ccc(O)cc1)NC(=O)[C@H](CC(N)=O)NC(=O)[C@H](Cc1ccccc1)NC(=O)[C@H](CC(N)=O)NC(=O)[C@@H](N)CC(C)C)C(=O)N[C@H](C(=O)N[C@H](C(=O)N[C@@H](CC(=O)O)C(=O)O)C(C)C)[C@@H](C)CC", "note": "[LNFNYDLDKIIVD] (H-LNFNYDLDKIIVD-OH)", "Kd": 1040}, {"smiles": "CC[C@H](C)[C@H](NC(=O)[C@H](CCCCN)NC(=O)[C@H](CC(=O)O)NC(=O)[C@H](CC(C)C)NC(=O)[C@H](CCC(=O)O)NC(=O)[C@H](Cc1ccc(O)cc1)NC(=O)[C@H](CC(N)=O)NC(=O)[C@H](Cc1ccccc1)NC(=O)[C@H](CC(N)=O)NC(=O)[C@@H](N)CC(C)C)C(=O)N[C@H](C(=O)N[C@H](C(=O)N[C@@H](CC(=O)O)C(=O)O)C(C)C)[C@@H](C)CC", "note": "[LNFNYELDKIIVD] (H-LNFNYELDKIIVD-OH)", "Kd": 116000}, {"smiles": "CC[C@H](C)[C@H](NC(=O)[C@H](CCCCN)NC(=O)[C@H](CC(=O)O)NC(=O)[C@H](CC(C)C)NC(=O)CNC(=O)[C@H](Cc1ccc(O)cc1)NC(=O)[C@H](CC(N)=O)NC(=O)[C@H](Cc1ccccc1)NC(=O)[C@H](CC(N)=O)NC(=O)[C@@H](N)CC(C)C)C(=O)N[C@H](C(=O)N[C@H](C(=O)N[C@@H](CC(=O)O)C(=O)O)C(C)C)[C@@H](C)CC", "note": "[LNFNYGLDKIIVD] (H-LNFNYGLDKIIVD-OH)", "Kd": "38 ± 5"}, {"smiles": "CC[C@H](C)[C@H](NC(=O)[C@H](CCCCN)NC(=O)[C@H](CC(=O)O)NC(=O)[C@H](CC(C)C)NC(=O)[C@H](Cc1c[nH]cn1)NC(=O)[C@H](Cc1ccc(O)cc1)NC(=O)[C@H](CC(N)=O)NC(=O)[C@H](Cc1ccccc1)NC(=O)[C@H](CC(N)=O)NC(=O)[C@@H](N)CC(C)C)C(=O)N[C@H](C(=O)N[C@H](C(=O)N[C@@H](CC(=O)O)C(=O)O)C(C)C)[C@@H](C)CC", "note": "[LNFNYHLDKIIVD] (H-LNFNYHLDKIIVD-OH)", "Kd": "80 ± 15"}, {"smiles": "CC[C@H](C)[C@H](NC(=O)[C@H](CCCCN)NC(=O)[C@H](CC(=O)O)NC(=O)[C@H](CC(C)C)NC(=O)[C@H](CC(C)C)NC(=O)[C@H](Cc1ccc(O)cc1)NC(=O)[C@H](CC(N)=O)NC(=O)[C@H](Cc1ccccc1)NC(=O)[C@H](CC(N)=O)NC(=O)[C@@H](N)CC(C)C)C(=O)N[C@H](C(=O)N[C@H](C(=O)N[C@@H](CC(=O)O)C(=O)O)C(C)C)[C@@H](C)CC", "note": "[LNFNYLLDKIIVD] (H-LNFNYLLDKIIVD-OH)", "Kd": 3600}, {"smiles": "CC[C@H](C)[C@H](NC(=O)[C@H](CCCCN)NC(=O)[C@H](CC(=O)O)NC(=O)[C@H](CC(C)C)NC(=O)[C@H](CCSC)NC(=O)[C@H](Cc1ccc(O)cc1)NC(=O)[C@H](CC(N)=O)NC(=O)[C@H](Cc1ccccc1)NC(=O)[C@H](CC(N)=O)NC(=O)[C@@H](N)CC(C)C)C(=O)N[C@H](C(=O)N[C@H](C(=O)N[C@@H](CC(=O)O)C(=O)O)C(C)C)[C@@H](C)CC", "note": "[LNFNYMLDKIIVD] (H-LNFNYMLDKIIVD-OH)", "Kd": "146 ± 9"}, {"smiles": "CC[C@H](C)[C@H](NC(=O)[C@H](CCCCN)NC(=O)[C@H](CC(=O)O)NC(=O)[C@H](CC(C)C)NC(=O)[C@H](CC(N)=O)NC(=O)[C@H](Cc1ccc(O)cc1)NC(=O)[C@H](CC(N)=O)NC(=O)[C@H](Cc1ccccc1)NC(=O)[C@H](CC(N)=O)NC(=O)[C@@H](N)CC(C)C)C(=O)N[C@H](C(=O)N[C@H](C(=O)N[C@@H](CC(=O)O)C(=O)O)C(C)C)[C@@H](C)CC", "note": "[LNFNYNLDKIIVD] (H-LNFNYNLDKIIVD-OH)", "Kd": "290 ± 90"}, {"smiles": "CC[C@H](C)[C@H](NC(=O)[C@H](CCCCN)NC(=O)[C@H](CC(=O)O)NC(=O)[C@H](CC(C)C)NC(=O)[C@@H]1CCCN1C(=O)[C@H](Cc1ccc(O)cc1)NC(=O)[C@H](CC(N)=O)NC(=O)[C@H](Cc1ccccc1)NC(=O)[C@H](CC(N)=O)NC(=O)[C@@H](N)CC(C)C)C(=O)N[C@H](C(=O)N[C@H](C(=O)N[C@@H](CC(=O)O)C(=O)O)C(C)C)[C@@H](C)CC", "note": "[LNFNYPLDKIIVD] (H-LNFNYPLDKIIVD-OH)", "Kd": "290 ± 70"}, {"smiles": "CC[C@H](C)[C@H](NC(=O)[C@H](CCCCN)NC(=O)[C@H](CC(=O)O)NC(=O)[C@H](CC(C)C)NC(=O)[C@H](CCC(N)=O)NC(=O)[C@H](Cc1ccc(O)cc1)NC(=O)[C@H](CC(N)=O)NC(=O)[C@H](Cc1ccccc1)NC(=O)[C@H](CC(N)=O)NC(=O)[C@@H](N)CC(C)C)C(=O)N[C@H](C(=O)N[C@H](C(=O)N[C@@H](CC(=O)O)C(=O)O)C(C)C)[C@@H](C)CC", "note": "[LNFNYQLDKIIVD] (H-LNFNYQLDKIIVD-OH)", "Kd": 1500}, {"smiles": "CC[C@H](C)[C@H](NC(=O)[C@H](CCCCN)NC(=O)[C@H](CC(=O)O)NC(=O)[C@H](CC(C)C)NC(=O)[C@H](CCCNC(=N)N)NC(=O)[C@H](Cc1ccc(O)cc1)NC(=O)[C@H](CC(N)=O)NC(=O)[C@H](Cc1ccccc1)NC(=O)[C@H](CC(N)=O)NC(=O)[C@@H](N)CC(C)C)C(=O)N[C@H](C(=O)N[C@H](C(=O)N[C@@H](CC(=O)O)C(=O)O)C(C)C)[C@@H](C)CC", "note": "[LNFNYRLDKIIVD] (H-LNFNYRLDKIIVD-OH)", "Kd": 1230}, {"smiles": "CC[C@H](C)[C@H](NC(=O)[C@H](CCCCN)NC(=O)[C@H](C)NC(=O)[C@H](CC(C)C)NC(=O)[C@H](CO)NC(=O)[C@H](Cc1ccc(O)cc1)NC(=O)[C@H](CC(N)=O)NC(=O)[C@H](Cc1ccccc1)NC(=O)[C@H](CC(N)=O)NC(=O)[C@@H](N)CC(C)C)C(=O)N[C@H](C(=O)N[C@H](C(=O)N[C@@H](CC(=O)O)C(=O)O)C(C)C)[C@@H](C)CC", "note": "[LNFNYSLAKIIVD] (H-LNFNYSLAKIIVD-OH)", "Kd": "51 ± 18"}, {"smiles": "CC[C@H](C)[C@H](NC(=O)[C@H](C)NC(=O)[C@H](CC(=O)O)NC(=O)[C@H](CC(C)C)NC(=O)[C@H](CO)NC(=O)[C@H](Cc1ccc(O)cc1)NC(=O)[C@H](CC(N)=O)NC(=O)[C@H](Cc1ccccc1)NC(=O)[C@H](CC(N)=O)NC(=O)[C@@H](N)CC(C)C)C(=O)N[C@H](C(=O)N[C@H](C(=O)N[C@@H](CC(=O)O)C(=O)O)C(C)C)[C@@H](C)CC", "note": "[LNFNYSLDAIIVD] (H-LNFNYSLDAIIVD-OH)", "Kd": "65 ± 20"}, {"smiles": "CC[C@H](C)[C@H](NC(=O)[C@H](CC(=O)O)NC(=O)[C@H](CC(=O)O)NC(=O)[C@H](CC(C)C)NC(=O)[C@H](CO)NC(=O)[C@H](Cc1ccc(O)cc1)NC(=O)[C@H](CC(N)=O)NC(=O)[C@H](Cc1ccccc1)NC(=O)[C@H](CC(N)=O)NC(=O)[C@@H](N)CC(C)C)C(=O)N[C@H](C(=O)N[C@H](C(=O)N[C@@H](CC(=O)O)C(=O)O)C(C)C)[C@@H](C)CC", "note": "[LNFNYSLDDIIVD] (H-LNFNYSLDDIIVD-OH)", "Kd": "176 ± 65"}, {"smiles": "CC[C@H](C)[C@H](NC(=O)[C@H](Cc1ccccc1)NC(=O)[C@H](CC(=O)O)NC(=O)[C@H](CC(C)C)NC(=O)[C@H](CO)NC(=O)[C@H](Cc1ccc(O)cc1)NC(=O)[C@H](CC(N)=O)NC(=O)[C@H](Cc1ccccc1)NC(=O)[C@H](CC(N)=O)NC(=O)[C@@H](N)CC(C)C)C(=O)N[C@H](C(=O)N[C@H](C(=O)N[C@@H](CC(=O)O)C(=O)O)C(C)C)[C@@H](C)CC", "note": "[LNFNYSLDFIIVD] (H-LNFNYSLDFIIVD-OH)", "Kd": "28 ± 6"}, {"smiles": "CC[C@H](C)[C@H](NC(=O)[C@H](Cc1c[nH]cn1)NC(=O)[C@H](CC(=O)O)NC(=O)[C@H](CC(C)C)NC(=O)[C@H](CO)NC(=O)[C@H](Cc1ccc(O)cc1)NC(=O)[C@H](CC(N)=O)NC(=O)[C@H](Cc1ccccc1)NC(=O)[C@H](CC(N)=O)NC(=O)[C@@H](N)CC(C)C)C(=O)N[C@H](C(=O)N[C@H](C(=O)N[C@@H](CC(=O)O)C(=O)O)C(C)C)[C@@H](C)CC", "note": "[LNFNYSLDHIIVD] (H-LNFNYSLDHIIVD-OH)", "Kd": "29 ± 9"}, {"smiles": "CC[C@H](C)[C@H](NC(=O)[C@H](CCCCN)NC(=O)[C@H](CC(=O)O)NC(=O)[C@H](CC(C)C)NC(=O)[C@H](CO)NC(=O)[C@H](Cc1ccc(O)cc1)NC(=O)[C@H](CC(N)=O)NC(=O)[C@H](Cc1ccccc1)NC(=O)[C@H](CC(N)=O)NC(=O)[C@@H](N)CC(C)C)C(=O)N[C@@H](C)C(=O)N[C@H](C(=O)N[C@@H](CC(=O)O)C(=O)O)C(C)C", "note": "[LNFNYSLDKIAVD] (H-LNFNYSLDKIAVD-OH)", "Kd": "940 ± 250"}, {"smiles": "CC[C@H](C)[C@H](NC(=O)[C@H](CCCCN)NC(=O)[C@H](CC(=O)O)NC(=O)[C@H](CC(C)C)NC(=O)[C@H](CO)NC(=O)[C@H](Cc1ccc(O)cc1)NC(=O)[C@H](CC(N)=O)NC(=O)[C@H](Cc1ccccc1)NC(=O)[C@H](CC(N)=O)NC(=O)[C@@H](N)CC(C)C)C(=O)N[C@@H](CC(=O)O)C(=O)N[C@H](C(=O)N[C@@H](CC(=O)O)C(=O)O)C(C)C", "note": "[LNFNYSLDKIDVD] (H-LNFNYSLDKIDVD-OH)", "Kd": "790 ± 120"}, {"smiles": "CC[C@H](C)[C@H](NC(=O)[C@H](CCCCN)NC(=O)[C@H](CC(=O)O)NC(=O)[C@H](CC(C)C)NC(=O)[C@H](CO)NC(=O)[C@H](Cc1ccc(O)cc1)NC(=O)[C@H](CC(N)=O)NC(=O)[C@H](Cc1ccccc1)NC(=O)[C@H](CC(N)=O)NC(=O)[C@@H](N)CC(C)C)C(=O)N[C@@H](CCC(=O)O)C(=O)N[C@H](C(=O)N[C@@H](CC(=O)O)C(=O)O)C(C)C", "note": "[LNFNYSLDKIEVD] (H-LNFNYSLDKIEVD-OH)", "Kd": "890 ± 290"}, {"smiles": "CC[C@H](C)[C@H](NC(=O)[C@H](CCCCN)NC(=O)[C@H](CC(=O)O)NC(=O)[C@H](CC(C)C)NC(=O)[C@H](CO)NC(=O)[C@H](Cc1ccc(O)cc1)NC(=O)[C@H](CC(N)=O)NC(=O)[C@H](Cc1ccccc1)NC(=O)[C@H](CC(N)=O)NC(=O)[C@@H](N)CC(C)C)C(=O)N[C@@H](Cc1c[nH]cn1)C(=O)N[C@H](C(=O)N[C@@H](CC(=O)O)C(=O)O)C(C)C", "note": "[LNFNYSLDKIHVD] (H-LNFNYSLDKIHVD-OH)", "Kd": "740 ± 170"}, {"smiles": "CC[C@H](C)[C@H](NC(=O)[C@H](CCCCN)NC(=O)[C@H](CC(=O)O)NC(=O)[C@H](CC(C)C)NC(=O)[C@H](CO)NC(=O)[C@H](Cc1ccc(O)cc1)NC(=O)[C@H](CC(N)=O)NC(=O)[C@H](Cc1ccccc1)NC(=O)[C@H](CC(N)=O)NC(=O)[C@@H](N)CC(C)C)C(=O)N[C@H](C(=O)N[C@H](C(=O)N[C@@H](CC(=O)O)C(=O)O)C(C)C)[C@@H](C)CC", "note": "[LNFNYSLDKIIVD] (H-LNFNYSLDKIIVD-OH)", "Kd": "73 ± 16"}]}]}
